Where “and” joins values, the source holds several entries; their conditions need not be identical. Equal values may be shown once.
Columns and labels:
TGR = biological target: T1, TGR (Schistosoma mansoni, UniProt Q962Y6, X597U); assay: Superoxide production (pyrogallol red); format: biochemical, S. mansoni; details: replicates
T1 construct: made in house
Method: The production of superoxide by TGR was determined by monitoring reaction of superoxide with pyrogallol red[80]. Briefly, a 1 ml reaction mix (500 nM TGR, 100 µM NADPH, and 20–50 µM inhibitor) was incubated at room temperature for 30 min for fast inhibitors, or 2 h for slow inhibitors. For irreversible inhibitor controls TRi-1 (synthesized in house as reported[45]), Stattic (Cayman Chemical), and AF (Cayman Chemical), the samples were desalted using a Zeba spin desalting column. 100 µL of sample was combined with pyrogallol buffer with and without superoxide dismutase (SOD) (50 µM pyrogallol red, 300 µM NADPH; ± 10 units SOD). The reaction was measured at A340 and A540 simultaneously for 2 h.

[1] = system: S. mansoni adult worms in mice; assay: Schistosomicidal efficacy in infected mice, adult worms (42 d.p.i.); format: in vivo; details: for Egg burden, Treated, individual mice / Worm burden, Treated, individual mice: Adult worm, listed as 8VP101; for Egg burden, Treated, individual mice: eggs per 50 mg liver (Fig. 6); for decrease in egg burden / decrease in worm burden: mice
Method: (§1) To assess the efficacy of the compounds in vivo against juvenile and adult worms, five female Swiss-Webster mice were randomly assigned for the control and experiment groups using a randomization tool embedded in GraphPad Prism. Mice were percutaneously exposed for 1 h to about 80 S. mansoni cercariae. Three- and six-weeks post infection, respectively, for juvenile and adult worms, mice were treated depending on their weight with formulations of the compounds, while the control mice received only the vehicle. Compounds were formulated with 10% DMSO and 10% Tween-80, and vortexed to obtain a uniform mixture. The mixture was sonicated twice for 5 min each time using a digital ultrasonic cleaner heated to 50 °C. Sodium chloride 0.9% (80% normal saline) was added to the mixture, briefly vortexed and sonicated one more time using the same conditions as previous. The investigators were blinded by which group of mice received a treatment and the vehicle, as injection was done by technicians from the Comparative Research Center of Rush University Medical Center. Using a 26 G, 3/8 in intradermal bevel needle, each mouse was administered intraperitoneally with 100 µl of the formulated compound suspension at 50 mg/kg, 100 mg/kg and 200 mg/kg. Mice treated three weeks post infection for juvenile worms were euthanized three weeks post treatment and mice treated six weeks post infection were euthanized one week post treatment with 0.018 ml of Euthasol and 5.85 mg/ml heparin and perfused. The mesenteric and hepatic portal veins of the mice were carefully scanned under the microscope to extract any remaining S. mansoni adult worms and worm burdens were determined. Egg burden was determined by weighing 50 mg of liver tissue from each of treated and control mice. The liver tissues were digested with 5% KOH at 37 °C overnight and washed twice with PBS. The number of eggs per 50 mg of liver tissue was determined using a Keyence BZ-X800 microscope using the egg autofluorescence.

[2] = system: S. mansoni juvenile worms in mice; assay: Schistosomicidal efficacy in infected mice, juvenile worms (21 d.p.i.); format: in vivo
Method: as §1

[3] = 1 x 100 mg/kg i.p. at 42 d.p.i.
[4] = 2 x 50 mg/kg i.p. at 42 and 45 d.p.i.
[5] = mice, 1 x 100 mg/kg at 21 d.p.i. (juvenile worms)

Structure (SMILES)	Superoxide production, Pyrogallol red consumption monitored ΔA540 (TGR; condition not given)	Superoxide production, Pyrogallol red consumption monitored ΔA540 (TGR; second of the two columns per substance (condition not given))	Egg burden, Treated, individual mice ([1]; 1 x 100 mg/kg)	Worm burden, Treated, individual mice ([1]; 1 x 100 mg/kg)	Egg burden, Treated, individual mice ([1]; 2 x 50 mg/kg)	Worm burden, Treated, individual mice ([1]; 2 x 50 mg/kg)	decrease in egg burden [1, 3]	decrease in worm burden [1, 3]	decrease in egg burden [1, 4]	decrease in worm burden [1, 4]	Egg burden, Treated, individual mice ([2]; 1 x 100 mg/kg, Juvenile worm, eggs per 50 mg liver (Fig. 6), listed as 8VP101)	Worm burden, Treated, individual mice ([2]; 1 x 100 mg/kg, Juvenile worm, listed as 8VP101)	ED50 ([2]; Schistosoma mansoni, 504 h, based on the single dose tested, 21 d.p.i., read-out: estimated ED50 against juvenile worms)	decrease in egg burden [2, 5]	decrease in worm burden [2, 5]
CC(=O)OC[C@H]1O[C@@H]([S-])[C@H](OC(C)=O)[C@@H](OC(C)=O)[C@@H]1OC(C)=O.CCP(CC)CC.[Au+] [AF, auranofin, reference compound]	-0.0001303 and -1.372e-5	-0.0001254 and 0.0001668													
CCc1ccccc1-c1nc(CN[C@@H]2C[C@@H]3C[C@H]([C@H]2C)C3(C)C)c(C)o1 [Compound 2]			296 and 301 and 311 and 299 and 321	8 and 6 and 4 and 5	319 and 335 and 372 and 393 and 436	5 and 10 and 8 and 4 and 3	73% and 73.3%	85% and 85.2%	69% and 68.8%	43% and 42.9%	986 and 1201 and 968 and 1001 and 988	12 and 13 and 11 and 8	< 100 mg/kg	56.7% and 57%	61.3% and 61% and > 60%
